From patent US20180344725A1, “QUINOLONE CHALCONE COMPOUNDS AND USES THEREOF” (priority 2015, published 2018) come the findings set out here.

One experiment deals with MCF10CA1a. In words: SRB cell viability, isogenic breast cell lines. Format: cell-based. The following applies: MCF10CA1a (MCF10Ala [sic]), 72 hours; for viability at 0.03125 µM: 31.25 nM; for Cell survival rate: 0.39 μM. As to the method:
FIG. 9 illustrates that CTR-17, CTR-20, CTR-21 and CTR-32 preferentially kill the fully malignant […] breast cancer cells over the pre-malignant MCF10AT1 and the non-malignant MCF-10A breast cells. Cells were treated with (A) CTR-17 at doses of 0.10, 0.39, 1.56 or 6.25 μM; (B) CTR-20 at doses of 0.10, 0.39, 1.56 or 6.25 μM; (C) CTR-21 at doses of 7.81, 15.63, 31.25, 62.5, 125 or 250 nM; or (D) CTR-32 at doses of 7.81, 15.63, 31.25, 62.5, 125 or 250 nM for 72 hours. Cell viability was determined using an SRB assay.
All of the cell lines used were purchased from ATCC and cultured in RPMI-1640 supplemented with 10% fetal bovine serum and antibiotics (100 units penicillin/100 μg/ml streptomycin), unless stated otherwise. 1845B5 and MCF-10A non-cancer breast cell lines were cultured in DME/F12 medium supplemented with 10% fetal bovine serum, antibiotics and growth factors. KB-3-1 is a human epidermal carcinoma cell line and KB-C-2 is its isogenic multidrug-resistant cell line with over-expressing ABCB1/P-gp. […] The human small cell lung carcinoma H69 cell line and its multidrug-resistant MRP1-overexpressing isogenic H69AR cell line were purchased from ATCC. The H69AR cell line was established in the presence of increasing concentrations of Adriamycin (doxorubicin). H69 cells grow as large multi-cell aggregates, making it difficult to accurately count cell numbers. Therefore, the cytotoxicity results obtained from H69AR cells were compared to SW1271, a small cell lung carcinoma cell line without a multidrug-resistant phenotype. The IL-6 dependent bortezomib-resistant ANBL6-BR cell line was further supplemented with 1 ng/ml of IL-6. The MCF10AT1 and MCF10CA1a cell lines are isogenic to the MCF10A cell line, and obtained from Dr. Valerie Weaver at the Center for Bioengineering and Tissue Regeneration, UCSF, CA, USA. MCF10AT1 is a premalignant cell line generated by transforming MCF10A with c-Ha-Ras; and MCF10CA1a was isolated by selecting malignant cells after MCF10AT1 cells were engrafted into mice (Liu & Lin 2004; Marella et al. 2009). The MCF10AT1 and MCF10CA1a cells were cultured in DMEM supplemented with 10% FBS (volume/volume). MDA-MB231TaxR cell line was generated in house by culturing MDA-MB231 cells in gradually increasing doses of paclitaxel over one-year period, and finally maintained at 100 nM paclitaxel. The drug-resistant cells were cultured in the absence of drug for at least one passage before carrying out experiments. All cells were maintained in a humidified incubator at 37° C. (5% CO2/95% air). Cell line authentication was performed using short tandem repeat (STR) profiling.
For (anti)proliferation assays, 4,000-5,000 cells/well of the 96-well clustered dish were incubated for 16 hours, as described previously (Hu et al., 2008; Skehan et al., 1990). After 16 hours, culture medium was replaced with fresh medium containing different dilutions of test compounds dissolved in DMSO. Some wells were treated with 100 μl of 10% trichloroacetic acid (TCA) as a negative control and sham (medium with dimethyl sulfoxide; DMSO) treated cells were used as a positive control. After 72 hours post-incubation, medium was removed and cells were fixed with 10% TCA at 4° C. for 1 hour. TCA was removed and cells were washed with cold tap water, and plate was air-dried, followed by addition of 50 μl of 0.4% SRB staining solution to each well. After 30 minutes incubation, SRB staining solution was removed. Cells were washed with 1% acetic acid solution, and then washed with tap water to remove unbound staining solution, followed by air-drying. 200 μl of 10 mM (pH10.5) trizma base buffer was added to each well to solubilise macromolecules. SRB stained macromolecules were determined at a 540 nm wavelength using an automated plate reader (Synergy H4 Hybrid Multi-Mode Microplate Reader, BioTek, Winooski, Vt.). Cell growth (inhibition) was calculated by the following formula: […]

Another experiment has as its system KB-C-2. In words: SRB-based cytotoxicity assay, single and combination with paclitaxel. Format: cell-based, human. The conditions noted are these: for IC50: Homo sapiens, KB-C2, KB-C-2, multidrug-resistant; for Resistance (fold): KB-C-2 versus KB-C-1. As to the method:
1845B5 and MCF-10A non-cancer breast cell lines were cultured in DME/F12 medium supplemented with 10% fetal bovine serum, antibiotics and growth factors. […] The human small cell lung carcinoma H69 cell line and its multidrug-resistant MRP1-overexpressing isogenic H69AR cell line were purchased from ATCC. […] H69 cells grow as large multi-cell aggregates, making it difficult to accurately count cell numbers. […] The IL-6 dependent bortezomib-resistant ANBL6-BR cell line was further supplemented with 1 ng/ml of IL-6. The MCF10AT1 and MCF10CA1a cell lines are isogenic to the MCF10A cell line, and obtained from Dr. Valerie Weaver at the Center for Bioengineering and Tissue Regeneration, UCSF, CA, USA. […] The drug-resistant cells were cultured in the absence of drug for at least one passage before carrying out experiments. All cells were maintained in a humidified incubator at 37° C. […] Cell line authentication was performed using short tandem repeat (STR) profiling. […] Some wells were treated with 100 μl of 10% trichloroacetic acid (TCA) as a negative control and sham (medium with dimethyl sulfoxide; DMSO) treated cells were used as a positive control. […] TCA was removed and cells were washed with cold tap water, and plate was air-dried, followed by addition of 50 μl of 0.4% SRB staining solution to each well. After 30 minutes incubation, SRB staining solution was removed. Cells were washed with 1% acetic acid solution, and then washed with tap water to remove unbound staining solution, followed by air-drying. 200 μl of 10 mM (pH10.5) trizma base buffer was added to each well to solubilise macromolecules. […] Cell growth (inhibition) was calculated by the following formula: % cells proliferation=[(AT-CT)/(ST-CT)]×100 wherein AT=absorbance of treated cells, CT=absorbance of negative control cells, and ST=absorbance of sham treated cells. […] CI values were determined from four independent experiments.

The mark [1] stands for this setting: single agent at 0.5IC50 (CTR-17 0.325 μM; CTR-20 0.125 μM; paclitaxel 11.5 nM).
Where [2] appears, read: single agent at IC50 (CTR-17 0.65 μM; CTR-20 0.25 μM; paclitaxel 23 nM).

For orientation: viability means the share of living cells, or the viability signal relative to a control. With `CCOc1ccccc1C(=O)/C=C/c1cc2ccccc2[nH]c1=O` [CTR-32, (E)-3-(3-(2-ethoxyphenyl)-3-oxoprop-1-enyl)quinolin-2(1H)-one], the viability at 0.03125 µM with MCF10CA1a amounted to 40%.
Broadly, the IC50 is the concentration that gives 50% inhibition. Regarding `COc1ccc2[nH]c(=O)c(/C=C/C(=O)c3ccccc3OC)cc2c1` [CTR-20, (E)-6-Methoxy-3-(3-(2-methoxyphenyl)-3-oxoprop-1-enyl) quinolin-2(1H)-one], the Cell survival rate in the experiment on MCF10CA1a is given as 10%. For the same molecule, in the experiment with KB-C-2, the IC50 was found to be 250 ± 30 nM and the “Resistance (fold)” value came out at 2.50 fold. Besides, in the experiment with KB-C-2 (setting [1]), the Cell survival rates was found to be 76.0 ± 9.6. For the same molecule, the Cell survival rates in the experiment on KB-C-2 (setting [2]) was determined as 56.8 ± 8.4.
As for `CC(=O)O[C@H]1C(=O)[C@@]2(C)[C@H]([C@H](OC(=O)c3ccccc3)[C@]3(O)C[C@H](OC(=O)[C@H](O)[C@@H](NC(=O)c4ccccc4)c4ccccc4)C(C)=C1C3(C)C)[C@]1(OC(C)=O)CO[C@@H]1C[C@@H]2O` [Paclitaxel, reference compound], the “Resistance (fold)” value in the experiment on KB-C-2 stood at 11.48 fold. The Cell survival rates with KB-C-2 (single agent at 0.125IC50 (paclitaxel 2.875 nM)) was determined as 99.6 ± 0.3; in the experiment with KB-C-2 (single agent at 0.25IC50 (paclitaxel 5.75 nM)) it was 89.5 ± 6.0; in the experiment with KB-C-2 (setting [1]) it was 75.9 ± 7.7; with KB-C-2 (setting [2]) it was 48.4 ± 5.8.
For `COc1ccccc1C(=O)/C=C/c1cc2cccc(OC)c2[nH]c1=O` [CTR-21, (E)-8-methoxy-3-(3-(2-methoxyphenyl)-3-oxoprop-1-enyl) quinolin-2(1H)-one], in the experiment on MCF10CA1a, the viability at 0.03125 µM came out at 10%.
As to `COc1ccccc1C(=O)/C=C/c1cc2ccccc2[nH]c1=O` [CTR-17, (E)-3-(3-(2-Methoxyphenyl)-3-oxoprop-1-enyl)quinolin-2(1H)-one], the Cell survival rate with MCF10CA1a was 39%. The concentration for half-maximal inhibition (IC50) in the experiment on KB-C-2 stood at 650 ± 160 nM. In addition, the “Resistance (fold)” value in the experiment with KB-C-2 was 1.71 fold. Moreover, the Cell survival rates in the experiment on KB-C-2 (setting [1]) is reported as 80.0 ± 11.4; with KB-C-2 (setting [2]) it was 53.2 ± 12.6.
